Data reported in ChEMBL document CHEMBL1126805, “Synthesis and evaluation of a series of benzylaniline hydrochlorides as potential cytotoxic and antimitotic agents acting by inhibition of tubulin polymerization” (J Med Chem, 1993).

Key:
[1] = system: HCT-15; test: Tested for cytotoxicity against HCT-15 cell lines in colon cancer; format: functional; details: Homo sapiens
[2] = system: SK-MEL-2; test: Tested for cytotoxicity against SK-MEL-2 cell lines in melanoma; format: functional; details: Homo sapiens
[3] = system: SF-539; test: Tested for cytotoxicity against SF-539 cell lines in CNS cancer; format: functional; details: Homo sapiens
[4] = system: NCI-H23; test: Tested for cytotoxicity against NCI-H23 cell lines in non-small-cell lung cancer; format: functional; details: Homo sapiens
[5] = system: NCI-H522; test: (§1) Tested for cytotoxicity against NCI-H522 cell lines in non-small-cell lung cancer; format: functional; details: Homo sapiens
[6] = system: SN12C; test: Tested for cytotoxicity against SN12C cell lines in renal cancer; format: functional; details: Homo sapiens
[7] = system: MOLT-4; test: Tested for cytotoxicity against MOLT-4 cell lines in leukemia; format: functional; details: Homo sapiens
[8] = system: HOP-92; test: Tested for cytotoxicity against HOP-92 cell lines in non-small-cell lung cancer; format: functional; details: Homo sapiens
[9] = system: HCT-116; test: Tested for cytotoxicity against HCT116 cell lines in colon cancer; format: functional; details: Homo sapiens
[10] = system: NCI-H522; test: as §1; format: functional; details: Homo sapiens; remark: listed apart in the source
[11] = system: SK-MEL-5; test: Tested for cytotoxicity against SK-MEL-5 cell lines in melanoma; format: functional; details: Homo sapiens
[12] = system: EKVX; test: Tested for cytotoxicity against […] cell lines in non-small-cell lung cancer; format: functional; details: Homo sapiens
[13] = system: SF-268; test: Tested for cytotoxicity against SF-268 cell lines in CNS cancer; format: functional; details: Homo sapiens
[14] = system: DMS-114; test: Tested for cytotoxicity against DMS114 cell lines in small-cell lung cancer; format: functional; details: Homo sapiens
[15] = system: KM12; test: Tested for cytotoxicity against KM12 cell lines in colon cancer; format: functional; details: Homo sapiens
[16] = system: K562; test: Tested for cytotoxicity against K-562 cell lines in leukemia; format: functional; details: Homo sapiens
[17] = system: SK-OV-3; test: Tested for cytotoxicity against SK-OV-3 cell lines in ovarian cancer; format: functional; details: Homo sapiens
[18] = system: LXFL 529; test: Tested for cytotoxicity against LXFL529 cell lines in non-small-cell lung cancer; format: functional; details: Homo sapiens
[19] = system: DMS-273; test: Tested for cytotoxicity against DMS 273 cell lines in small-cell lung cancer; format: functional; details: Homo sapiens
[20] = system: HL-60; test: Tested for cytotoxicity against HL-60 (TB) cell lines in leukemia; format: functional; details: Homo sapiens
[21] = system: LOX IMVI; test: Tested for cytotoxicity against LOX IMVI cell lines in melanoma; format: functional; details: Homo sapiens
[22] = system: M14; test: (§2) Tested for cytotoxicity against M14 cell lines in melanoma; format: functional; details: Homo sapiens
[23] = system: A549; test: Tested for cytotoxicity against A549/ATCC cell lines in non-small-cell lung cancer; format: functional; details: Homo sapiens
[24] = system: SF-295; test: (§3) Tested for cytotoxicity against SF-295 cell lines in CNS cancer; format: functional; details: Homo sapiens
[25] = target: Tubulin (Bos taurus, UniProt Q6B856+Q862F3); test: In vitro inhibition of bovine electrophoretically homogeneous tubulin polymerization.; format: functional
[26] = system: NCI-H322M; test: Tested for cytotoxicity against NCI-H322M cell lines in non-small-cell lung cancer; format: functional; details: Homo sapiens
[27] = system: RPMI-8226; test: Tested for cytotoxicity against RPMI-8226 cell lines in leukemia; format: functional; details: Homo sapiens
[28] = system: XF498; test: Tested for cytotoxicity against XF 498 cell lines in CNS cancer; format: functional; details: Homo sapiens
[29] = system: M14; test: as §2; format: functional; details: Homo sapiens; remark: listed apart in the source
[30] = system: RXF 393; test: Tested for cytotoxicity against RXF-393 cell lines in renal cancer; format: functional; details: Homo sapiens
[31] = system: DMS-273; test: Tested for cytotoxicity against DMS273 cell lines in small-cell lung cancer; format: functional; details: Homo sapiens
[32] = system: U-251; test: Tested for cytotoxicity against U251 cell lines in CNS cancer; format: functional; details: Homo sapiens
[33] = system: UO-31; test: Tested for cytotoxicity against UO-31 cell lines in renal cancer; format: functional; details: Homo sapiens
[34] = system: CCRF-CEM; test: Tested for cytotoxicity against CCRF-CEM cell lines in leukemia; format: functional; details: Homo sapiens
[35] = system: HT-29; test: Tested for cytotoxicity against HT-29 cell lines in colon cancer; format: functional; details: Homo sapiens
[36] = system: 786-0; test: Tested for cytotoxicity against 786-0 cell lines in renal cancer; format: functional; details: Homo sapiens
[37] = system: OVCAR-4; test: Tested for cytotoxicity against OVCAR-4 cell lines in ovarian cancer; format: functional; details: Homo sapiens
[38] = system: OVCAR-5; test: Tested for cytotoxicity against OVCAR-5 cell lines in ovarian cancer; format: functional; details: Homo sapiens
[39] = system: KM-20L2; test: Tested for cytotoxicity against KM20L2 cell lines in colon cancer; format: functional; details: Homo sapiens
[40] = system: SF-295; test: as §3; format: functional; details: Homo sapiens; remark: listed apart in the source
[41] = system: COLO 205; test: (§4) Tested for cytotoxicity against COLO 205 cell lines in colon cancer; format: functional; details: Homo sapiens
[42] = system: SNB-75; test: Tested for cytotoxicity against SNB-75 cell lines in CNS cancer; format: functional; details: Homo sapiens
[43] = system: DLD-1; test: Tested for cytotoxicity against DLD-1 cell lines in colon cancer; format: functional; details: Homo sapiens
[44] = system: COLO 205; test: as §4; format: functional; details: Homo sapiens; remark: listed apart in the source
[45] = system: UACC-62; test: Tested for cytotoxicity against UACC-62 cell lines in melanoma; format: functional; details: Homo sapiens
[46] = system: SNB-19; test: Tested for cytotoxicity against SNB-19 cell lines in CNS cancer; format: functional; details: Homo sapiens
[47] = system: SW-620; test: Tested for cytotoxicity against SW-620 cell lines in colon cancer; format: functional; details: Homo sapiens
[48] = system: CAKI-1; test: (§5) Tested for cytotoxicity against CAKI-1 cell lines in renal cancer; format: functional; details: Homo sapiens
[49] = system: TK-10; test: Tested for cytotoxicity against TK-10 cell lines in renal cancer; format: functional; details: Homo sapiens
[50] = system: IGROV-1; test: Tested for cytotoxicity against IGROV1 cell lines in ovarian cancer; format: functional; details: Homo sapiens
[51] = system: UACC-257; test: Tested for cytotoxicity against UACC-257 cell lines in melanoma; format: functional; details: Homo sapiens
[52] = system: A498; test: Tested for cytotoxicity against A498 cell lines in renal cancer; format: functional; details: Homo sapiens
[53] = system: HOP-18; test: Tested for cytotoxicity against HOP-18 cell lines in non-small-cell lung cancer; format: functional; details: Homo sapiens
[54] = system: OVCAR-3; test: Tested for cytotoxicity against OVCAR-3 cell lines in ovarian cancer; format: functional; details: Homo sapiens
[55] = system: CAKI-1; test: as §5; format: functional; details: Homo sapiens; remark: listed apart in the source
[56] = system: HOP-62; test: Tested for cytotoxicity against HOP-62 cell lines in non-small-cell lung cancer; format: functional; details: Homo sapiens
[57] = system: SNB-78; test: Tested for cytotoxicity against SNB-78 cell lines in CNS cancer; format: functional; details: Homo sapiens
[58] = system: ACHN; test: Tested for cytotoxicity against ACHN cell lines in renal cancer; format: functional; details: Homo sapiens
[59] = system: HL-60; test: Tested for cytotoxicity against human cancer cell lines HL-60(TB) (leukemia) cell line.; format: functional
[60] = system: NCI-H460; test: Tested for cytotoxicity against NCI-H460 cell lines in non-small-cell lung cancer; format: functional; details: Homo sapiens
[61] = system: Malme-3M; test: Tested for cytotoxicity against MALME-3M cell lines in melanoma; format: functional; details: Homo sapiens
[62] = system: M19-MEL; test: Tested for cytotoxicity against M19-MEL cell lines in melanoma; format: functional; details: Homo sapiens
[63] = system: OVCAR-8; test: Tested for cytotoxicity against OVCAR-8 cell lines in ovarian cancer; format: functional; details: Homo sapiens
[64] = system: COLO 205; test: Tested for cytotoxicity against COLO 205 (colon cancer) cell line.; format: functional, Homo sapiens
[65] = system: OVCAR-3; test: Tested for cytotoxicity against OVCAR-3 (ovarian cancer) cell line.; format: functional, Homo sapiens
[66] = system: NCI-H522; test: Tested for cytotoxicity against NCI-H522 (non-small-cell lung cancer) cell line.; format: functional, Homo sapiens
[67] = system: CAKI-1; test: Tested for cytotoxicity against CAKI-1 renal cancer; format: functional, Homo sapiens
[68] = system: SF-295; test: In vitro cytotoxicity against SF-295 (CNS cancer) cell line.; format: functional, Homo sapiens
[69] = system: DMS-273; test: Tested for cytotoxicity against DMS 273 (small-cell lung cancer) cell line.; format: functional, Homo sapiens
[70] = system: M14; test: Tested for cytotoxicity against M14 melanoma; format: functional, Homo sapiens; details: Homo sapiens, M14

Tubulin, sequence (Q6B856 whole entry): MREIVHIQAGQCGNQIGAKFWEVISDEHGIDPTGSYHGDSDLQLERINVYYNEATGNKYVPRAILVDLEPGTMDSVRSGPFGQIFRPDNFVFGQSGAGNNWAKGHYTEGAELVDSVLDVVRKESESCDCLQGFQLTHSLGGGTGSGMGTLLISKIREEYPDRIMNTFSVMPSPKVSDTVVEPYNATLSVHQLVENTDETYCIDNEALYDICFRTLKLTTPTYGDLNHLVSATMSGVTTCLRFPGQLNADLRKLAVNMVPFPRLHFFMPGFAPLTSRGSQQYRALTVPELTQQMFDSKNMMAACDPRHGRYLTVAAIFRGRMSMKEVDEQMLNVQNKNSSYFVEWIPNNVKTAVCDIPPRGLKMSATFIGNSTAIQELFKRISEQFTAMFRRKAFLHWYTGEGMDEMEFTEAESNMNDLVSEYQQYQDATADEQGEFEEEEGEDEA
Tubulin, sequence (Q862F3 whole entry): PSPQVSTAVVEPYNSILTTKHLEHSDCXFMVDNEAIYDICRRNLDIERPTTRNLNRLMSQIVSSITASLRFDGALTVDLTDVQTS

COc1cc(CNc2ccc(C)cc2)cc(OC)c1OC
GI50 [1]: 245 nM | GI50 [2]: 132 nM | GI50 [3]: 316 nM | GI50 [4]: 407 nM | GI50 [5]: 262 nM | GI50 [6]: 851 nM | GI50 [7]: 427 nM | GI50 [8]: 18600 nM | GI50 [9]: 575 nM | GI50 [10]: 204 nM | GI50 [11]: 912 nM | GI50 [12]: 741 nM | GI50 [13]: 912 nM | GI50 [14]: 427 nM | GI50 [15]: 759 nM | GI50 [16]: 100 nM | GI50 [17]: 269 nM | GI50 [18]: 631 nM | GI50 [19]: 104 nM | GI50 [20]: 89.1 nM | GI50 [21]: 851 nM | GI50 [22]: < 10 nM | GI50 [23]: 513 nM | GI50 [24]: 324 nM | IC50 [25]: 3500 nM | GI50 [26]: 501 nM | GI50 [27]: 437 nM | GI50 [28]: 468 nM | GI50 [29]: 292 nM | GI50 [30]: 112 nM | GI50 [31]: 93.3 nM | GI50 [32]: 331 nM | GI50 [33]: 832 nM | GI50 [34]: 282 nM | GI50 [35]: 347 nM | GI50 [36]: 324 nM | GI50 [37]: 21400 nM | GI50 [38]: 1350 nM | GI50 [39]: 251 nM | GI50 [40]: 233 nM | GI50 [41]: 219 nM | GI50 [42]: 389 nM | GI50 [43]: 575 nM | GI50 [44]: 214 nM | GI50 [45]: 575 nM | GI50 [46]: 295 nM | GI50 [47]: 110 nM | GI50 [48]: 162 nM | GI50 [49]: > 100000 nM | GI50 [50]: 708 nM | GI50 [51]: > 100000 nM | GI50 [52]: > 100000 nM | GI50 [53]: 37200 nM | GI50 [54]: 214 nM | GI50 [55]: 13.2 nM | GI50 [56]: 282 nM | GI50 [57]: 1100 nM | GI50 [58]: 97.7 nM | GI50 [59]: 722 nM | GI50 [60]: 214 nM | GI50 [61]: 468 nM | GI50 [62]: 331 nM | GI50 [63]: 759 nM

COc1ccc(NCc2cc(OC)c(OC)c(OC)c2)cc1
GI50 [64]: 235 nM | IC50 [25]: 4600 nM | GI50 [65]: 363 nM | GI50 [66]: 412 nM | GI50 [67]: 458 nM | GI50 [68]: 266 nM | GI50 [69]: 141 nM | GI50 [59]: 115 nM

CCCc1ccc(/N=C/c2cc(OC)c(OC)c(OC)c2)cc1
GI50 ([64]; Homo sapiens, COLO 205): > 100000 nM | IC50 [25]: > 40000 nM | GI50 ([65]; Homo sapiens, OVCAR-3): > 100000 nM | GI50 ([66]; Homo sapiens, NCI-H522): > 100000 nM | GI50 ([67]; Homo sapiens, CAKI-1): > 100000 nM | GI50 ([68]; Homo sapiens, SF-295): > 100000 nM | GI50 ([69]; Homo sapiens, DMS-273): > 100000 nM | GI50 [70]: > 100000 nM | GI50 ([59]; Homo sapiens, HL-60): 22600 nM

CCc1ccc(/N=C/c2cc(OC)c(OC)c(OC)c2)cc1
IC50 [25]: > 40000 nM | GI50 ([65]; Homo sapiens, OVCAR-3): > 100000 nM | GI50 ([66]; Homo sapiens, NCI-H522): > 100000 nM | GI50 ([67]; Homo sapiens, CAKI-1): > 100000 nM | GI50 ([68]; Homo sapiens, SF-295): > 100000 nM | GI50 ([69]; Homo sapiens, DMS-273): > 100000 nM | GI50 [70]: > 100000 nM
